Measurements taken from ChEMBL document CHEMBL1201862, “PubChem BioAssay data set” (2004).
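Grown in 96-well plates, cells were treated for 48 hours with each compound at five concentrations. Insufficient inhibition: endpoint recorded as highest concentration tested. GI50 = concentration required for 50% inhibition of growth.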 Calls of active or inactive are those of the source. Cut-off read from the data, not from the text of the source: active = GI50 up to about 1.1 µM and inactive = higher.

Tests used:
Test in all cases: growth of human tumour cells (NCI), 48 h
M14 = system: M14
A498 = system: A498
OVCAR-4 = system: OVCAR-4
MOLT-4 = system: MOLT-4
SW-620 = system: SW-620
NCI-H23 = system: NCI-H23
CAKI-1 = system: CAKI-1
UACC-62 = system: UACC-62
HOP-92 = system: HOP-92
SK-MEL-5 = system: SK-MEL-5
HCT-116 = system: HCT-116
SF-268 = system: SF-268
SF-539 = system: SF-539
OVCAR-3 = system: OVCAR-3
U-251 = system: U-251
A549 = system: A549
RXF 393 = system: RXF 393
HCC 2998 = system: HCC 2998
RPMI-8226 = system: RPMI-8226
NCI-H226 = system: NCI-H226

Measured: GI50

CC1(CO)OC(n2cnc3c(N)ncnc32)C(O)C1O (stereo unspecified)
inactive: M14 > 100 µM | A498 > 100 µM | OVCAR-4 > 100 µM | MOLT-4 > 100 µM | SW-620 > 100 µM | NCI-H23 > 100 µM | CAKI-1 > 100 µM | UACC-62 > 100 µM | HOP-92 > 100 µM | SK-MEL-5 > 100 µM | HCT-116 > 100 µM | SF-268 > 100 µM | SF-539 > 100 µM | OVCAR-3 > 100 µM | U-251 > 100 µM | A549 > 100 µM | RXF 393 > 100 µM | HCC 2998 > 100 µM | RPMI-8226 > 100 µM

c1ccc(C2N3CCCCC3[C@@H]3c4[nH]c5ccccc5c4CCN23)cc1 (stereo partly specified)
inactive: M14 > 100 µM | A498 27 µM | OVCAR-4 29.5 µM | MOLT-4 41.2 µM | SW-620 50.4 µM | NCI-H23 > 100 µM | CAKI-1 > 100 µM | UACC-62 48.3 µM | HOP-92 > 100 µM | SK-MEL-5 67.3 µM | HCT-116 64 µM | SF-268 > 100 µM | SF-539 > 100 µM | OVCAR-3 > 100 µM | U-251 > 100 µM | A549 > 100 µM | RXF 393 47.3 µM | HCC 2998 98.9 µM | RPMI-8226 36.2 µM

COc1cccc(/C=C2/S/C(=N/Nc3nc(C)c(C(C)=O)s3)NC2=O)c1O
inactive: M14 32.8 µM | A498 33.9 µM | OVCAR-4 30.3 µM | SW-620 29.2 µM | NCI-H226 37.7 µM | NCI-H23 35.3 µM | CAKI-1 47.5 µM | UACC-62 20.1 µM | HOP-92 28.9 µM | SK-MEL-5 20.9 µM | HCT-116 30.7 µM | SF-268 40.6 µM | SF-539 34.8 µM | OVCAR-3 22.5 µM | U-251 18.5 µM | A549 37.9 µM | RXF 393 28.8 µM | HCC 2998 35.6 µM | RPMI-8226 27 µM

CCCCCCCCCCC(C)CCCCCCC(=O)OCC(COP(=O)([O-])OCC[N+](C)(C)C)OC(=O)CCCCCCC(C)CCCCCCCCCC (stereo unspecified)
inactive: M14 > 100 µM | A498 > 100 µM | OVCAR-4 > 100 µM | MOLT-4 > 100 µM | SW-620 > 100 µM | NCI-H226 > 100 µM | NCI-H23 > 100 µM | CAKI-1 > 100 µM | UACC-62 > 100 µM | HOP-92 > 100 µM | SK-MEL-5 > 100 µM | HCT-116 > 100 µM | SF-268 > 100 µM | OVCAR-3 > 100 µM | U-251 > 100 µM | A549 > 100 µM | RXF 393 > 100 µM | HCC 2998 > 100 µM | RPMI-8226 > 100 µM

Nn1c(S)nnc1COc1cccc(OCc2nnc(S)n2N)c1
inactive: M14 > 100 µM | A498 > 100 µM | OVCAR-4 > 100 µM | MOLT-4 3.13 µM | SW-620 40 µM | NCI-H226 > 100 µM | NCI-H23 > 100 µM | CAKI-1 > 100 µM | UACC-62 83.2 µM | HOP-92 > 100 µM | HCT-116 > 100 µM | SF-268 > 100 µM | SF-539 80 µM | OVCAR-3 > 100 µM | U-251 > 100 µM | A549 > 100 µM | RXF 393 > 100 µM | HCC 2998 > 100 µM | RPMI-8226 53.6 µM

Cc1ccc(S(=O)(=O)OCCOCCOCCOCCOCCOS(=O)(=O)c2ccc(C)cc2)cc1
inactive: M14 45.1 µM | A498 44.4 µM | OVCAR-4 51.3 µM | MOLT-4 14.4 µM | SW-620 91.2 µM | NCI-H226 33.5 µM | NCI-H23 21.3 µM | CAKI-1 47.1 µM | UACC-62 61.4 µM | HOP-92 35.7 µM | SK-MEL-5 18.4 µM | HCT-116 52.5 µM | SF-268 > 100 µM | OVCAR-3 21.7 µM | U-251 58.3 µM | A549 69.8 µM | RXF 393 > 100 µM | HCC 2998 41.6 µM | RPMI-8226 33.5 µM

Cc1ccc(C2(O)c3ccccc3C(=O)N(C)C2(O)c2ccc(C)cc2)cc1 (stereo unspecified)
inactive: M14 62.7 µM | A498 > 100 µM | OVCAR-4 18.2 µM | MOLT-4 12.8 µM | SW-620 34.5 µM | NCI-H23 > 100 µM | CAKI-1 68.1 µM | UACC-62 > 100 µM | HOP-92 18.6 µM | SK-MEL-5 33.5 µM | HCT-116 49.2 µM | SF-268 21.2 µM | SF-539 45.1 µM | OVCAR-3 > 100 µM | U-251 17.4 µM | A549 > 100 µM | RXF 393 32.3 µM | HCC 2998 79.3 µM | RPMI-8226 > 100 µM

N/C(=N\O)N/N=C/c1cc2c(cc1Cl)OCO2
inactive: A498 65.6 µM | OVCAR-4 52 µM | MOLT-4 39 µM | SW-620 41.8 µM | NCI-H226 29.1 µM | NCI-H23 58.1 µM | CAKI-1 37.5 µM | UACC-62 > 50.4 µM | HOP-92 28.3 µM | SK-MEL-5 24.2 µM | HCT-116 51.5 µM | SF-268 25.4 µM | SF-539 31.8 µM | U-251 34.5 µM | A549 36.8 µM | RXF 393 38.4 µM | HCC 2998 26 µM | RPMI-8226 24 µM
